Laboratory results: PubChem BioAssay (NCI)
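Method: 48-hour compound exposure of cells in 96-well plates, five concentrations, linear interpolation of endpoints. TGI: total growth inhibition.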

How the values were obtained:
Assay in all cases: DTP human tumour cell line panel, 48 h
[1] = test system: EKVX NSCLC
[2] = test system: SNB-19 CNS
[3] = test system: HCC-2998 colon
[4] = test system: U251 CNS
[5] = test system: IGROV1 ovarian
[6] = test system: RPMI-8226 leukemia
[7] = test system: HL-60(TB) leukemia
[8] = test system: COLO 205 colon
[9] = test system: HT29 colon
[10] = test system: SN12C renal
[11] = test system: UO-31 renal
[12] = test system: HCT-116 colon
[13] = test system: OVCAR-5 ovarian
[14] = test system: A549 NSCLC
[15] = test system: OVCAR-3 ovarian
[16] = test system: RXF 393 renal
[17] = test system: MOLT-4 leukemia
[18] = test system: UACC-62 melanoma
[19] = test system: MDA-MB-231 breast
[20] = test system: MALME-3M melanoma

Row | SMILES | TGI [1] [µM] | TGI [2] [µM] | TGI [3] [µM] | TGI [4] [µM] | TGI [5] [µM] | TGI [6] [µM] | TGI [7] [µM] | TGI [8] [µM] | TGI [9] [µM] | TGI [10] [µM] | TGI [11] [µM] | TGI [12] [µM] | TGI [13] [µM] | TGI [14] [µM] | TGI [15] [µM] | TGI [16] [µM] | TGI [17] [µM] | TGI [18] [µM] | TGI [19] [µM] | TGI [20] [µM]
1 | O=C(O/C=C\OC1CCCC1(c1ccccc1)c1ccccc1)c1ccccc1 (stereo not drawn) | 34.8 | 28.9 | > 49.4 | 12.4 | 9.37 | 6.44 | 4.68 | 31.5 | 13.8 | 13.7 | 3.84 | 6.52 | 31.1 | > 68.5 | 21.3 | 15 | > 31 | 16.8 | 6.17 | 
2 | COc1ccc2c(c1)C(=O)OCCC2 | > 100 | > 100 | > 100 | > 100 | > 100 | > 100 | > 100 | > 100 | > 100 | > 100 | > 100 | > 100 | > 100 | > 100 | > 100 | > 100 | > 100 | > 100 | > 100 | 
3 | COc1cc(O)c(C(=O)/C=C/c2ccc(O)cc2)cc1Oc1ccc(/C=C/C(=O)c2ccc(O)cc2O)cc1 | 27.7 | 43.1 |  | 17.2 | 15 | 17.6 | 34 | 15.4 | 14.2 | 19.4 | 18.2 | 14.7 | 26.4 | > 50 | 17 | 17.5 | 38.8 | 17.6 | 36.7 | 17.6
4 | CC(O)CCCCC(O)CCC[C@H](O)[C@H]1CCC([C@H]2CCC([C@@H](O)CCCCCCCCCCCCC3=C[C@H](C)OC3=O)O2)O1 (stereo partly drawn) | 17.4 | 20.2 | 23.9 | 20.6 | 21.1 |  | 26.9 | 23.7 | 20.7 | 22.9 | 19 | 15.5 | 22 | 17.6 | 19.1 | 22.5 | 20.1 | 21 | 21.6 | 
5 | COc1ccc(-n2cnn3c(=O)c4cn[nH]c4nc23)cc1 | > 10 | > 10 | > 10 | > 10 |  |  | > 10 |  | > 10 | > 10 | > 10 | > 10 | > 10 | > 10 | > 10 |  | > 10 |  |  | > 10
6 | O=c1cc(CO)oc(C(O)c2ccccc2)c1O (stereo not drawn) |  | > 100 | > 100 | > 100 | > 100 | > 100 | > 100 | > 100 | > 100 | > 100 | > 100 | > 100 | > 100 | > 100 | > 100 | > 100 | > 100 | > 100 | > 100 | > 100
7 | CC1=CCC(C)=Nc2nc3ccccc3n21 | > 100 | > 100 |  | > 100 | > 100 | > 100 | > 100 | > 100 | > 100 | > 100 | 58.9 | > 100 | > 100 | > 100 | > 100 | > 100 | > 100 | > 100 | > 100 | > 100
8 | CC(C)N(C(=O)C1(O)c2ccccc2C=Cc2ccccc21)C(C)C | 32.5 | 44.4 |  | 30.5 | 28.8 | > 100 |  | 33.4 | 33.5 | 31.4 | 40.1 | 32.8 | 27.9 | 48.3 | 31.3 |  | 82.8 | 29.5 | 29.3 | 31.5
9 | COc1ccc(C2OC(N)=C(C#N)C3=C2CCCC3C)cc1OC (stereo not drawn) | > 100 | > 100 |  | > 100 | > 100 | > 100 | > 100 | > 100 | > 100 | > 100 | > 100 | > 100 | > 100 |  | > 100 | > 100 | > 100 | > 100 | > 100 | > 100
10 | CN(C)CC1CCC/C(=C\c2ccc(Cl)cc2)C1=O (stereo not drawn) | 25.7 | 26.5 | 18.1 | 9.08 | 8.62 | > 100 |  | 4.82 | > 32.7 | 8.55 | 4.52 | 3.55 | 35.6 | 32.4 | 12.1 |  | > 21.7 | 4.5 | 9.21 | 4.76
11 | Cc1ccccc1N/C(=C(/C(Cl)=C(Cl)Cl)[N+](=O)[O-])n1nnc2ccccc21 | 40.9 | 46.8 | 35.8 | 29.9 |  | > 100 |  | 29.1 | 35.5 | 31.1 | 31.8 | > 100 | 33.6 | > 100 | 30.8 |  | > 100 | 71.9 | 58.1 | 27.9
12 | CC1(C)CC(=O)C(C=NC(=O)c2ccncc2)=C(O)C1 | > 100 | > 100 | > 100 | > 100 | > 100 |  | > 100 | > 100 | > 100 | > 100 | > 100 | > 100 | > 100 | > 100 | > 100 | > 100 | > 100 | > 100 | > 100 | 
13 | COc1ccc(OC)c(C(Cc2ccnc3ccccc23)Cc2ccnc3ccccc23)c1 | > 10 | > 10 | > 10 | > 10 | > 10 | > 10 |  | > 10 | > 10 | > 10 | > 10 | > 10 | > 10 | > 10 | > 10 | > 10 | > 10 | > 10 | > 10 | 
